# Test results taken from PubChem BioAssay (NCI).
#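 In this assay, cells in 96-well plates receive the compound at five concentrations for 48 hours. Endpoints are linearly interpolated between the surrounding concentrations. Abbreviation: GI50, concentration required for 50% inhibition of growth. The concentration for full growth arrest is given as TGI.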
# How the values were obtained:
# Assay in all cases: NCI-60 cell line screen, 48 h
# UACC-62 melanoma = test system: UACC-62 melanoma
# 786-0 renal = test system: 786-0 renal
# SK-OV-3 ovarian = test system: SK-OV-3 ovarian
# K-562 leukemia = test system: K-562 leukemia
# IGROV1 ovarian = test system: IGROV1 ovarian
# SF-295 CNS = test system: SF-295 CNS
# A498 renal = test system: A498 renal
# MOLT-4 leukemia = test system: MOLT-4 leukemia
# HS 578T breast = test system: HS 578T breast
# MDA-MB-435 = test system: MDA-MB-435
SMILES,TGI (UACC-62 melanoma) [µM],TGI (786-0 renal) [µM],TGI (SK-OV-3 ovarian) [µM],TGI (K-562 leukemia) [µM],TGI (IGROV1 ovarian) [µM],TGI (SF-295 CNS) [µM],TGI (A498 renal) [µM],TGI (MOLT-4 leukemia) [µM],GI50 (UACC-62 melanoma) [µM],GI50 (HS 578T breast) [µM],TGI (HS 578T breast) [µM],GI50 (786-0 renal) [µM],GI50 (SK-OV-3 ovarian) [µM],GI50 (K-562 leukemia) [µM],GI50 (A498 renal) [µM],GI50 (MOLT-4 leukemia) [µM],GI50 (IGROV1 ovarian) [µM],GI50 (SF-295 CNS) [µM],GI50 (MDA-MB-435) [µM],TGI (MDA-MB-435) [µM]
CCOC(=O)C1C2CCC(C2)C1(CCl)C(=O)OCC (stereo not drawn),> 100,> 100,> 100,> 100,> 100,> 100,> 100,> 100,,,,,,,,,,,,
O=C1NC(=O)C(=C/C=C/c2ccccc2)C(=O)N1,4.5,11,30.5,70,,,34.6,25.1,1.88,4.81,50.4,3.11,16.5,4.94,20,4.12,,,,
CCOC(=O)n1cc(C2=C(c3cn(C)c4ccccc34)COC2=O)c2ccccc21,> 55.6,15.8,56.8,> 32.2,> 45.8,11,0.644,> 48.4,0.0599,0.116,21.1,0.268,1.97,0.0365,0.0391,0.38,0.0564,0.0464,,
CC(=O)c1ccc(OCC(O)CO)cc1 (stereo not drawn),> 100,76.2,> 100,> 100,> 100,> 100,> 100,> 100,,,,,,,,,,,,
O=C(c1ccccc1)N1C2CCC1C(C(F)(F)F)=C2C(F)(F)F,> 100,> 100,> 100,> 100,> 100,> 100,> 100,> 100,,,,,,,,,,,,
O=[N+]([O-])c1ccccc1N/N=C\c1c[nH]c2ccccc12,> 100,> 93.1,98,> 100,3.92,33,,> 100,17.1,3.9,25.8,18.8,22.4,4.53,,4.42,0.0379,9.5,> 100,> 100
N#Cc1c2c(c(N=P(c3ccccc3)(c3ccccc3)c3ccccc3)n3c1nc1ccccc13)CCCC2,74.4,> 100,> 100,38.2,> 100,> 100,73.2,64.2,,,,,,,,,,,,
CN(C)c1ccc(N=C2C=CC(=[N+](C)C)C=C2)cc1,34.6,> 100,78.6,,37.8,22.1,> 100,,5.25,3.28,29.1,30,15.5,,2.7,,5.35,4.62,6.34,29.2
